From PubChem BioAssay AID179 (DTP/NCI, 2004) come the findings set out here.

Where “and” joins values, the source holds several entries; their conditions need not be identical. Equal values may be shown once. Calls of active or inactive are those of the source.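 The calls were made as follows: active = compounds giving half or more protection of infected cells from virus-caused growth loss, again on retest; inactive = the rest.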 Where a SMILES comes first, the peptide text is derived from it. [ ]: non-standard residue; d: D form. The star is where a group is joined. ξ: configuration not given here. ξD = NC(CC(=O)O)C(=O)O; Ac3c = NC1(C(=O)O)CC1; Boc = CC(C)(C)OC(=O)*; OtBu = CC(C)(C)O*

This experiment deals with CEM cells HIV-1 protection, formazan growth assay. Kind of experiment: NCI AIDS Antiviral Assay. To be noted: for IC50: measured here: growth of uninfected CEM cells. In short, it runs like this:
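Protection of CEM cells against HIV-1 measured as cell growth via soluble formazan read-out, with five concentrations tested on both infected and uninfected cells; failure to protect may reflect toxicity.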

As for `O=C(COc1ccc(Br)cc1Br)N1N=C(c2ccc([N+](=O)[O-])o2)CC1(O)c1ccccc1` (stereo unspecified), the EC50 was above 6.61 µM and the IC50 is above 6.61 µM.

Regarding `CC1=CC(Nc2ccc(S(=O)(=O)c3ccc(NC4=NCCNC(C)=C4)cc3)cc2)=NCCN1`, the EC50 is above 200 µM and the half-inhibitory concentration (IC50) was above 200 µM.

Take `COC(=O)C1(NC(=O)C(CC(=O)OC(C)(C)C)NC(=O)OC(C)(C)C)CC1` (stereo unspecified) (Boc-[ξD](OtBu)-[Ac3c]-OMe): the EC50 is above 200 µM and the IC50 was above 200 µM. Consider `C=C(CCC(C)C1CCC2C3=C(C(=O)CC21C)C1(C)CCC(=O)[C@@H](C)C1CC3=O)C(C)C(=O)O` (stereo partly specified), for which the EC50 was above 200 µM and the IC50 stood at 46.8 µM.

Take `COc1ccc(Nc2nnc(-c3nsc4ccccc34)s2)cc1`: the EC50 is above 21.4 µM and the IC50 was above 21.4 µM. On to `CC1C(c2ccccc2)OCN1CC=C(c1ccsc1)c1ccsc1` (stereo unspecified), for which the EC50 is above 200 µM and the IC50 came to 15.1 µM.

Regarding `NS(=O)(=O)c1cc[n+]([O-])c2ccccc12`, the EC50 was above 200 µM and the IC50 turned out to be 55 µM. Regarding `CN(C)CC1CCC/C1=N\O` (stereo unspecified), the EC50 was above 1580 µM and the half-maximal inhibitory concentration (IC50) was found to be 1380 µM. Regarding `OC(C/C=N/N=C/CC(O)(C(F)(F)Cl)C(F)(F)Cl)(C(F)(F)Cl)C(F)(F)Cl`, the EC50 was above 200 µM and the concentration for half-maximal inhibition (IC50) is 89.1 µM. In the case of `O=C1CC(c2c[nH]c3ccccc23)C(=O)N1` (stereo unspecified), the outcome was inactive. For the compound `O=c1[nH]c(=O)n(CCOc2ccccc2)cc1Nc1ccccc1`, the EC50 is above 200 µM and the IC50 was above 200 µM. Consider `NNC(=O)c1nnn(CCc2ccccc2)c1C(=O)NN`, for which the EC50 is above 200 µM and the concentration for half-maximal inhibition (IC50) was above 200 µM. Regarding `CC1(C)CC(=O)C2=C(C1)OC(N)=C(c1nc(-c3ccccc3)cs1)C2c1ccc(Br)cc1` (stereo unspecified), the EC50 was above 200 µM and the 50% inhibitory concentration (IC50) came out at 22.9 µM. With `CC(=O)N(C(=O)CC(=O)NNCc1ccccc1Cl)c1ccc(Cl)cc1`, the EC50 was above 200 µM and the 50% inhibitory concentration (IC50) is above 200 µM.

With `NCCS/C=C\C(=O)O`, the EC50 was above 1700 µM and the half-maximal inhibitory concentration (IC50) is above 1700 µM. `COc1cccc2c1C(=O)C1(O)CCCCC21` (stereo unspecified): the EC50 was 44.7 µM and the IC50 is above 200 µM. Regarding `CCOC(=O)c1c(NC(=O)c2ccccc2)sc2c1CCC2`, the EC50 is above 151 µM and the half-maximal inhibitory concentration (IC50) is above 151 µM.

On to `O=C(O)[C@H](CSSC[C@@H](C(=O)O)N1C(=O)c2ccccc2C1=O)N1C(=O)c2ccccc2C1=O`, for which the EC50 was above 200 µM and the IC50 was above 200 µM. Take `NC(CCC(=O)NCCCC(=O)O)C(=O)O` (stereo unspecified): the EC50 is above 85.1 µM and the half-maximal inhibitory concentration (IC50) is above 85.1 µM. Regarding `CCOC(=O)c1c2ccc(/C=C/c3ccccc3)ccc-2c(C(=O)OCC)c1N`, the EC50 is above 7.08 µM and the IC50 was above 7.08 µM. Take `COC(=O)C1=C(C(=O)OC)N2c3ccccc3-n3c(-c4ccccc4)cc(OC)c3C2(C)C(C(=O)OC)=C1C(=O)OC` (stereo unspecified): the EC50 was above 53.7 µM and the IC50 is above 53.7 µM. `O=CNNC(=O)Nc1ccc(Cl)cc1`: the EC50 was above 200 µM and the IC50 was above 200 µM. With `Cc1cn(C2CC(N(O)C(N)=O)C(CO)O2)c(=O)[nH]c1=O` (stereo unspecified), the EC50 is above 200 µM; the IC50 is > 200 µM and 107 µM. Turning to `COc1cccc(/C=C2\CCc3ccccc3C2=O)c1`, the EC50 is above 14.5 µM and the IC50 was above 14.5 µM. For `O=S(=O)(O)c1cccc(N=Nc2cc(S(=O)(=O)O)c3cccnc3c2O)c1`, the EC50 was above 550 µM and the IC50 was above 550 µM. As to `N#C/C(=C\c1c(O)ccc2ccccc12)c1ccc([N+](=O)[O-])cc1`, the EC50 is above 100 µM and the IC50 was above 100 µM. In the case of `CCOC(=O)C1(CC)OC12CCCCC2` (stereo unspecified), the EC50 is above 200 µM and the half-maximal inhibitory concentration (IC50) was above 200 µM. In the case of `C/C(CN1C(=O)c2ccccc2C1=O)=N\NS(C)(=O)=O`, the EC50 was above 851 µM and the half-maximal inhibitory concentration (IC50) amounted to 589 µM. For `COC(=O)C(Cc1ccccc1)NC(=O)C(CCCN=C(N)N)NC(=O)OCc1ccccc1` (stereo unspecified), the EC50 was above 200 µM and the half-inhibitory concentration (IC50) is above 200 µM. Regarding `c1ccc(-n2nc3ccc4nonc4c3n2)cc1`, the EC50 is above 200 µM and the IC50 is above 200 µM.

On to `O=c1[nH]c2nc3ccccc3c(=O)n2/c1=C/c1ccc(O)cc1`, for which the EC50 was above 200 µM and the half-inhibitory concentration (IC50) turned out to be 52.5 µM. As for `c1cc2c3c(c1)[I+]c1cccc(c1-3)[I+]2`, the EC50 is above 100 µM and the concentration for half-maximal inhibition (IC50) was 0.12 µM. On to `Cc1ccc(Nc2nc(NS(=O)(=O)c3cc(C(=O)Nc4ccc(Cl)cc4)c(Cl)cc3S)n[nH]2)cc1`, for which the EC50 was above 195 µM and the 50% inhibitory concentration (IC50) is 178 µM.

With `CCC(C(=O)C(=O)OC)P1(=O)OC(C)(C)CN1C(C)(C)C` (stereo unspecified), the EC50 is above 200 µM and the IC50 is above 200 µM. For the compound `CC(C)(C)OC(=O)N1CCCC1C(=O)NC(c1ccccc1)c1ccccc1` (stereo unspecified), the EC50 is above 200 µM and the 50% inhibitory concentration (IC50) is above 200 µM. `CC1=C(C(=O)N(C)c2ccc(Cl)c(C(=O)OC(C)C)c2)SCCO1`: the EC50 is above 240 µM and the half-maximal inhibitory concentration (IC50) turned out to be 93.3 µM.

On to `COc1cc(/C=C/C(=O)O)ccc1OS(=O)(=O)O`, for which the EC50 was above 200 µM and the IC50 is above 200 µM. For the compound `O=C1N/C(=N\N=C\c2ccccc2)C(c2ccccc2)O1` (stereo unspecified), the EC50 is above 200 µM and the IC50 was 33.9 µM. Regarding `C[C@@]12C[C@@H](c3ccccc3O1)N1Cc3ccccc3CSC1=N2`, the EC50 is above 200 µM and the IC50 came out at 49 µM. On the same counts, the results for `O=C(Nc1nc2ccccc2s1)c1cc([N+](=O)[O-])ccc1Cl` are above 200 µM and 3.8 µM.

On to `O=C(O)CN(c1ccccc1)S(=O)(=O)c1ccc(NC(=O)c2ccccc2)cc1`, for which the result was inactive.

As to `OC(O)(C(F)(F)F)C(F)(F)F`, the EC50 was above 200 µM and the 50% inhibitory concentration (IC50) is above 200 µM. For the compound `CC(CCNC(=O)c1ccccc1)(CCNC(=O)c1ccccc1)[N+](=O)[O-]`, the EC50 is above 200 µM and the IC50 was above 200 µM. `CCOP(=O)(c1ccccc1)C([CH2][Sn]([CH3])([CH3])[Cl])P(=O)(OC(C)C)OC(C)C` (stereo unspecified): the EC50 was above 200 µM and the IC50 came out at 4.47 µM.

With `O=C(O)C1(Cc2ccc3c(c2)CCC3)Cc2ccccc2C1`, the EC50 is above 200 µM and the IC50 stood at 81.3 µM.

As for `CCOC(=O)C1=C(C)N(NC(N)=O)C2(N)N(NC(N)=O)C(C)=C(C(=O)OCC)C12C(=O)OCC` (stereo unspecified), the EC50 was above 513 µM and the IC50 is above 513 µM. For `O=C(/C=C/c1ccccc1O)c1ccccc1O`, the EC50 is above 209 µM and the IC50 is above 209 µM. Take `O=C(N/S(=N/S(=O)(=O)c1ccc(Br)cc1)C(Cl)(Cl)Cl)c1ccccc1` (stereo unspecified): the EC50 was above 200 µM and the half-inhibitory concentration (IC50) was above 200 µM. Turning to `CN1C(=O)/C(=N/N(c2ccccc2)c2ccccc2)c2ccccc21`, the EC50 was above 200 µM and the IC50 was above 200 µM. As for `CC(=O)OCC1OC(n2ncc(=O)[nH]c2=O)C(OC(C)=O)C1OC(C)=O` (stereo unspecified), the EC50 was above 2 µM and the concentration for half-maximal inhibition (IC50) turned out to be 1.05 µM. With `CC(=O)c1ccc(NC(=O)C(=O)C(C(=O)/C=C/c2ccccc2)C2OC(=O)c3ccccc32)cc1` (stereo unspecified), the EC50 is above 282 µM and the IC50 was 148 µM. For `CN1C(=O)Cc2ccccc21`, the EC50 is above 200 µM and the IC50 was found to be 151 µM.

As for `CCOC(=O)Oc1cc2ccsc2c2c1c1ccccc1n2C(=O)OCC`, the EC50 is above 200 µM and the IC50 stood at 35.5 µM. On the same counts, the results for `CCOc1ccccc1NC(=O)C1=C(C)NC(C)=C(C(=O)Nc2ccccc2OCC)C1c1ccc(NC(C)=O)cc1` are above 12.6 µM and above 12.6 µM. As for `Cc1ccc(SSCCCS(=O)O)cc1`, the result was inactive. Take `COC1=CC(=O)C2C(C1=O)C(c1ccc(Cl)cc1)[C@@H]2C` (stereo partly specified): the EC50 was above 170 µM and the IC50 turned out to be 28.2 µM. Regarding `O=C(O)c1[nH]c(=O)[nH]c(=O)c1I`, the EC50 was above 200 µM and the half-maximal inhibitory concentration (IC50) is above 200 µM. Take `O=C(CCc1nnc2s/c(=C\c3ccccc3[N+](=O)[O-])c(=O)n12)Nc1cc(Cl)c(Cl)cc1Cl`: the EC50 is above 2 µM and the IC50 was above 2 µM. Turning to `O=C1NC2(O)C(=O)c3ccccc3C2(O)N1` (stereo unspecified), the EC50 is above 1120 µM and the IC50 is above 1120 µM. For `Cc1c2oc(=O)cc(-c3ccccc3)c2cc2c(=O)ccoc12`, the EC50 is above 22.4 µM and the IC50 is above 22.4 µM.

In the case of `CC1(C)OCC2OC3([C@H](O)CCO)OC(C)(C)OC3C2O1` (stereo partly specified), the EC50 is above 200 µM and the IC50 is above 200 µM.

With `O=C(O)C12C3C4(C(=O)O)C1C1(C(=O)O)C2C3(C(=O)O)C41` (stereo unspecified), the EC50 was above 200 µM and the IC50 is above 200 µM.

Take `O=C(CCc1nc(=S)[nH][nH]1)Nc1cccc(C(F)(F)F)c1`: the EC50 is above 22.9 µM and the IC50 was above 22.9 µM. On to `O=C1Oc2ccccc2C(=O)/C1=C/N1C(=O)N/C(=C\c2ccccc2O)C1=O`, for which the EC50 is above 200 µM and the half-maximal inhibitory concentration (IC50) was determined as 123 µM. On the same counts, the results for `Cc1nc(C)c(N2CCN(Cc3ccccc3)CC2)c(=O)[nH]1` are above 200 µM and above 200 µM.

`O=C(c1cccs1)N1CCCN(C(=O)c2cccs2)C1=S`: the EC50 was above 200 µM and the IC50 was above 200 µM. In the case of `Cc1ccc(S(=O)(=O)n2cc(C#N)c(C#N)c2)cc1`, the EC50 was above 200 µM and the concentration for half-maximal inhibition (IC50) was determined as 57.5 µM.

In the case of `O=C(C(Cl)=C(N1CCOCC1)N1CCOCC1)C(Cl)Cl`, the EC50 is above 200 µM and the half-inhibitory concentration (IC50) was 112 µM.

With `C=C[C@@H]1c2ccccc2C=C[C@]12C=CC(=O)CC2`, the EC50 was above 57.5 µM and the concentration for half-maximal inhibition (IC50) was 21.9 µM. Regarding `Nc1cc2c3c(cccc3c1)C(=O)N(CCN1CCCC1)C2=O`, the EC50 is above 200 µM and the IC50 is 1.07 µM. Consider `C=C1C(=O)O[C@@H]2[C@H]1CC[C@H](C)[C@@H]1CCC(=O)[C@@]21C`, for which the EC50 was above 200 µM and the IC50 is 3.39 µM.

As for `O=C1C(Cl)N(c2c(Cl)cccc2Cl)C1c1c[nH]c2ccccc12` (stereo unspecified), the EC50 is above 257 µM and the IC50 was 115 µM.
